Measurements taken from US6727264B1 (Synaptic Pharmaceutical Corporation, priority 2001, dated 2004).

target: rat MCH-1 (Rattus norvegicus, UniProt P97639); test: Radioligand binding assay at cloned rat MCH1 receptor ([3H] Compound A); set-up: host or cells: Peak rapid 293 (Peakr293) cells, transient calcium phosphate transfection, membranes; settings: cloned rat MCH1 receptor, membranes from Peakr293 cells, 0.08 nM [3H] Compound A; read-out: Ki (nM) rMCH1
Sequence (P97639 whole entry): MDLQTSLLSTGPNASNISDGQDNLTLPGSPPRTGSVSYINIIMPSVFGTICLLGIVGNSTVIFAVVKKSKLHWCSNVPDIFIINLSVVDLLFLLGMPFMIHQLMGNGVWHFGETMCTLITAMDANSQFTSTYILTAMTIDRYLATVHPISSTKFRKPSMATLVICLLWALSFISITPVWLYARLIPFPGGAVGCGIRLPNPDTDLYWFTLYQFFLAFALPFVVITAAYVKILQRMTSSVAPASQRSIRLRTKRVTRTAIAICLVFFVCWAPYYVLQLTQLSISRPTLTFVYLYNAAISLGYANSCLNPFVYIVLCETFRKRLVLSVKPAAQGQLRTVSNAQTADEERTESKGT

| SMILES | Ki [nM] |
| --- | --- |
| CC(C)C(=O)Nc1cccc(C2CCN(CCC(Oc3c(F)c(F)c(F)c(F)c3F)c3ccc(F)cc3)CC2)c1 (stereo not drawn) [Example 132] | 41.7 |
| Cc1ccccc1OC(CCN1CCC(c2cccc(NC(=O)C(C)C)c2)CC1)c1ccc(Br)cc1 (stereo not drawn) [Example 133] | 14.1 |
| CC(C)C(=O)Nc1cccc(C2CCN(CCC(Oc3ccc(F)c(F)c3)c3ccc(F)cc3)CC2)c1 (stereo not drawn) [Example 134] | 36.6 |
| CC(C)C(=O)Nc1cccc(C2CCN(CCC(Oc3ccc(Br)cc3)c3ccc(F)cc3)CC2)c1 (stereo not drawn) [Example 135] | 10.9 |
| CC(C)C(=O)Nc1cccc(C2CCN(CCC(Oc3ccc(Cl)c(Cl)c3)c3ccc(F)cc3)CC2)c1 (stereo not drawn) [Example 136] | 15.9 |
| CC(C)C(=O)Nc1cccc(C2CCN(CCC(Oc3ccc(C(F)(F)F)cc3)c3ccc(F)cc3)CC2)c1 (stereo not drawn) [Example 137] | 25.2 |
| CC(C)C(=O)Nc1cccc(C2CCN(CCC(Oc3cccc(Br)c3)c3ccc(F)cc3)CC2)c1 (stereo not drawn) [Example 138] | 9.3 |
| CC(C)C(=O)Nc1cccc(C2CCN(CCC(Oc3ccc(F)cc3)c3ccc(F)cc3)CC2)c1 (stereo not drawn) [Example 139] | 38.7 |
| CC(C)C(=O)Nc1cccc(C2CCN(CCC(Oc3cccc(F)c3)c3ccc(F)cc3)CC2)c1 (stereo not drawn) [Example 140] | 27.4 |
| CC(C)C(=O)Nc1cccc(C2CCN(CCC(Oc3c(Cl)cccc3Cl)c3ccc(F)cc3)CC2)c1 (stereo not drawn) [Example 141] | 61 |
| CC(C)C(=O)Nc1cccc(C2CCN(CCC(Oc3cc(F)ccc3F)c3ccc(F)cc3)CC2)c1 (stereo not drawn) [Example 142] | 18.3 |
| CC(C)C(=O)Nc1cccc(C2CCN(CCC(Oc3cccc(Cl)c3)c3ccc(F)cc3)CC2)c1 (stereo not drawn) [Example 143] | 8.7 |
| Cc1cccc(OC(CCN2CCC(c3cccc(NC(=O)C(C)C)c3)CC2)c2ccc(Br)cc2)c1 (stereo not drawn) [Example 144] | 13.4 |
| CC(C)C(=O)Nc1cccc(C2CCN(CCC(Oc3ccc(-c4ccccc4)cc3)c3ccc(Br)cc3)CC2)c1 (stereo not drawn) [Example 145] | 197 |

Second part, the compound after the results:

| Ki [nM] | SMILES |
| --- | --- |
| 19.2 | CC(C)C(=O)Nc1cccc(C2CCN(CCC(Oc3ccc(F)cc3F)c3ccc(F)cc3)CC2)c1 (stereo not drawn) [Example 146] |
| 8.7 | COc1cccc(OC(CCN2CCC(c3cccc(NC(=O)C(C)C)c3)CC2)c2ccc(Br)cc2)c1 (stereo not drawn) [Example 147] |
| 24.7 | COC(=O)c1ccc(OC(CCN2CCC(c3cccc(NC(=O)C(C)C)c3)CC2)c2ccc(Br)cc2)cc1 (stereo not drawn) [Example 148, METHYL 4-(1-(4-BROMOPHENYL)-3-{4-[3-(ISOBUTYRYLAMINO)PHENYL]-1-PIPERIDINYL}PROPOXY)BENZOATE] |
| 149 | CC(C)C(=O)Nc1cccc(C2CCN(CCC(Oc3ccc(Oc4ccccc4)cc3)c3ccc(Br)cc3)CC2)c1 (stereo not drawn) [Example 149] |
| 8 | Cc1ccc(OC(CCN2CCC(c3cccc(NC(=O)C(C)C)c3)CC2)c2ccc(Br)cc2)c(Cl)c1 (stereo not drawn) [Example 150] |
| 14.2 | CC(C)C(=O)Nc1cccc(C2CCN(CCC(Oc3ccccc3)c3ccc(Br)cc3)CC2)c1 (stereo not drawn) [Example 151] |
| 13.3 | CC(C)C(=O)Nc1cccc(C2CCN(CCC(Oc3ccc(C(F)(F)F)cc3)c3ccc(Br)cc3)CC2)c1 (stereo not drawn) [Example 152] |
| 8.1 | CC(=O)c1ccccc1OC(CCN1CCC(c2cccc(NC(=O)C(C)C)c2)CC1)c1ccc(Br)cc1 (stereo not drawn) [Example 153] |
| 9.3 | CC(=O)c1cccc(OC(CCN2CCC(c3cccc(NC(=O)C(C)C)c3)CC2)c2ccc(Br)cc2)c1 (stereo not drawn) [Example 154] |
| 7.4 | CC(=O)c1cccc(OC(CCN2CCC(c3cccc(NC(=O)C(C)C)c3)CC2)c2ccc3c(c2)CCC3)c1 (stereo not drawn) [Example 155] |
| 8.8 | CC(C)C(=O)Nc1cccc(C2CCN(CCC(Oc3ccccc3)c3ccc4c(c3)CCC4)CC2)c1 (stereo not drawn) [Example 156] |
| 15.4 | CC(=O)c1ccccc1OC(CCN1CCC(c2cccc(NC(=O)C(C)C)c2)CC1)c1ccc2c(c1)CCC2 (stereo not drawn) [Example 157, N-(3-{1-[3-(2- ACETYLPHENOXY)-3-(2,3-DIHYDRO-1H-INDEN-5-YL)PROPYL]-4-PIPERIDINYL}PHENYL)-2-METHYLPROPANAMIDE] |
| 7.8 | CC(C)C(=O)Nc1cccc(C2CCN(CCC(Oc3ccc(Br)cc3)c3ccc(Br)cc3)CC2)c1 (stereo not drawn) [Example 158] |
